Source: paper PMC4904371, “Luteolin inhibits GABAA receptors in HEK cells and brain slices” (Scientific Reports, 2016)

Legend:
α5β2 GABAAR = target: T1, α5β2 GABAAR (Rattus norvegicus, UniProt P19969+P63138); assay: whole-cell patch clamp, inhibition of GABA-evoked current; assay type: cell-based
T1 construct: gene Gabra5; full-length subunits in pcDNA3.1, co-transfected in HEK293T cells; GFP as separate marker; pentamer

α1β2 GABAAR = target: T2, α1β2 GABAAR (Rattus norvegicus, UniProt P62813+P63138); assay: as above; assay type: cell-based
T2 construct: gene Gabra1; full-length subunits in pcDNA3.1, co-transfected in HEK293T cells; GFP as separate marker; pentamer
T2 sequence (P62813 28-455): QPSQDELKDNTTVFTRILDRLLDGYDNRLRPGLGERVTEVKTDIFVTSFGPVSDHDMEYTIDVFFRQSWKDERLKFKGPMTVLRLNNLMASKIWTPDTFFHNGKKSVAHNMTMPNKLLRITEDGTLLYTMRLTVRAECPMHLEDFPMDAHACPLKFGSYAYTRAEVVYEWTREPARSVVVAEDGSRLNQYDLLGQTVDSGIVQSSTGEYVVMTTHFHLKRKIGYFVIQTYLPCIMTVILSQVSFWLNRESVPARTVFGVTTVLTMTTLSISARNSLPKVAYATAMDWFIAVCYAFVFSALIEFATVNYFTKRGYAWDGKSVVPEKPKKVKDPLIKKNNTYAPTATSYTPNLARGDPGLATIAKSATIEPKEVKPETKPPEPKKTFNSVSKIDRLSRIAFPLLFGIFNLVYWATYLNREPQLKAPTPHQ
T2 sequence (P63138 26-474): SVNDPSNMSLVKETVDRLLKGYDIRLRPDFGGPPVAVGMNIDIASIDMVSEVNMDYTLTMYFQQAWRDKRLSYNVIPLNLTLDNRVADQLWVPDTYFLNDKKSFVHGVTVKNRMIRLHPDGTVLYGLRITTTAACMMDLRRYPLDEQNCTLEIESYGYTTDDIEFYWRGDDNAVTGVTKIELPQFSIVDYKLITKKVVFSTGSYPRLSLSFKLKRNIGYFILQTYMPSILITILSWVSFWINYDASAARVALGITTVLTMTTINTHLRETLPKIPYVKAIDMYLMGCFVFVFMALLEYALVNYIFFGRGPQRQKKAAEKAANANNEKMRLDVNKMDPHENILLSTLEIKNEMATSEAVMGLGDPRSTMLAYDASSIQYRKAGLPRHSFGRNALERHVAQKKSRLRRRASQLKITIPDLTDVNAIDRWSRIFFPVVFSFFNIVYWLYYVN

T1 sequence (P19969 26-464): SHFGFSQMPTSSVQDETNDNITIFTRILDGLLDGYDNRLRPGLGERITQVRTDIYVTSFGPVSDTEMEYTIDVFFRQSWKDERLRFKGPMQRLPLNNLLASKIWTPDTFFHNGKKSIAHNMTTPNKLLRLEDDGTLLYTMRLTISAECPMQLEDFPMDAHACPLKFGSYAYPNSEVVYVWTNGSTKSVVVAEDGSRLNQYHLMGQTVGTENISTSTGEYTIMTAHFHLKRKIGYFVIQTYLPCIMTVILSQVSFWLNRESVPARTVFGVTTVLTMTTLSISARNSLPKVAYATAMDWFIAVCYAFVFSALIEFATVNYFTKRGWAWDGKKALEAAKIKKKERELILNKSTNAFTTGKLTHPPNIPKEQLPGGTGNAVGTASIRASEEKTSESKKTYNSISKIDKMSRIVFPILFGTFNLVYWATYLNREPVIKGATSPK
T1 sequence (P63138 26-474): as the sequence (P63138 26-474) above

IC50 (α5β2 GABAAR): 25.4 ± 9 µM
IC50 (α1β2 GABAAR): 10.8 ± 4.46 µM
Structure (SMILES): O=c1cc(-c2ccc(O)c(O)c2)oc2cc(O)cc(O)c12 [luteolin, 2-(3,4-Dihydroxyphenyl)-5,7-dihydroxy-4-chromenone]
